Reference: patent US20220091128A1, “SYSTEM AND METHOD FOR LIGAND THERMAL ANALYSIS” (Portland State University, priority 2019, published 2022)

Assays:
Assay type in all cases: binding
HSA = HSA (Homo sapiens, UniProt P02768); assay: Capture of DNA from plasma with biotinylated HSA capture reagent, gel electrophoresis; set-up: purchased Sigma Aldrich (HSA); biotinylated in house (Thermo Fisher Scientific 21217); Pierce streptavidin magnetic beads (Thermo Scientific 88816); details: salt washes
Protocol: Gel electrophoresis: DNA samples collected at different steps of the capture procedure were analyzed by electrophoresis on polyacrylamide gels. All electrophoresis experiments were performed using Lonza PAGEr™ Gold Precast Gels: Gradient, 10×10 cm, 8-16%, purchased from Thermo-Fisher (BMA59519). Each supernatant fraction collected at different steps of the capture procedure were suspended in TAE running buffer and analyzed. In a typical experiment, 25 μL total volume of solution was loaded per lane (well capacity). Gels were run in TAE buffer (40 mM Tris, 20 mM Acetic Acid, 0.4 mM EDTA) at a constant current of 20 mA for approximately three hours. Gels for analysis of DNA were stained with Stains-all solution, destained in water, removed, visualized and imaged on a flat-bed scanner. Gels for analysis of hot labeled cy5′-25MER DNA were visualized using a Typhoon™ Trio+phosphorimager (GE Healthcare).
Capture strategy: In some examples, biotinylated HSA acts as an affinity reagent for ligands in plasma that bind HSA. In the capture step, streptavidin coated magnetic beads are attached to biotinylated HSA then inserted into plasma. With application of a magnetic field, ligand-bound biotinylated HSA is retrieved. Captured HSA contains bound plasma components (ligands).
Ligand recovery: In the capture process, HSA-bound components are washed off the capture reagent. […]

biotinylated HSA (HSAB) = biotinylated HSA (HSAB) (Homo sapiens, UniProt P02768); assay: DSC thermograms of biotinylated HSA (HSAB) with ligands; details: HSAB, measured versus calculated composite curves (FIG. 23)
human plasma = assay: DSC thermograms of plasma with ligand; details: plasma, measured versus calculated composite curves (FIG. 22)

Chain of biotinylated HSA (HSAB) (P02768 25-609): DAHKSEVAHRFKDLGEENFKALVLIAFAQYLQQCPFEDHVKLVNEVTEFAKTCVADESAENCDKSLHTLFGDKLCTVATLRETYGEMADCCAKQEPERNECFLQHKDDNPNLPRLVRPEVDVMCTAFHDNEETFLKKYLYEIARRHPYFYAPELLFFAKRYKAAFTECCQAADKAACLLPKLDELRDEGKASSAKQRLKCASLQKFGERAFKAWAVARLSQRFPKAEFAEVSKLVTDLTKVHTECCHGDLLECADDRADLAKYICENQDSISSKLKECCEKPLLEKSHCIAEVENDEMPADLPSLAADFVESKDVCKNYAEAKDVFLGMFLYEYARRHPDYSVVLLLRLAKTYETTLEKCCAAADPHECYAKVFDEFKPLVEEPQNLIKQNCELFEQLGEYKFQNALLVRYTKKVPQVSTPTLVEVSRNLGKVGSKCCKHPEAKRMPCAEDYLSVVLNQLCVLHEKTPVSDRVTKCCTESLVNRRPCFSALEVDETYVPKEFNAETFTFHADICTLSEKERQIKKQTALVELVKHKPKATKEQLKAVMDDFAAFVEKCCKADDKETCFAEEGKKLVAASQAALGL
Chain of HSA (P02768 25-609): as above

Substance: ssDNA: 25-base single strand DNA 25R, 5′-CGACATGACCTTGTCGCTAACATCC-3′ (DNA CGACATGACCTTGTCGCTAACATCC; DNA, backbone and methylation of C not given here)
- binding to HSA by gel analysis (HSA): detectable, but weak
- interaction judged by effect on the thermogram (biotinylated HSA (HSAB)): interact very weakly
- interaction judged by effect on the thermogram (human plasma): interact very weakly
